Experimental data: ChEMBL document CHEMBL1122618, “Total chemical synthesis and antitumor evaluation of 4-demethoxy-10,10-dimethyldaunomycin” (1984)

Test system: Mus musculus
Test: The compound was tested intraperitoneally against P388 acute lymphocytic leukemia in mice (dose 10 mg/kg)
Assay type: functional
Details: route intraperitoneal

## CC(=O)[C@@]1(O)C[C@H](OC2CC(N)C(O)C(C)O2)c2c(O)c3c(c(O)c2C1(C)C)C(=O)c1ccccc1C3=O (stereo partly specified)
  T/C: >316
